Laboratory results published in patent publication US11066379B2 (THE TEXAS A&M UNIVERSITY SYSTEM, priority 2018, dated 2021).
Several values for one entry are separate records, joined by “and”; a condition that tells them apart may be missing. Equal entries are not always repeated. Entries after “also recorded” stand apart in the source; their conditions may differ.

Columns and labels:
[1] = tested on: Interleukin-2 (IL-2) production in human T lymphocytes; assay: Interleukin-2 release in Con A-stimulated human T lymphocytes (ELISA); format: cell-based; settings: 2 h pre-treatment at non-toxic concentration, Con A 50 μg/mL 48 h
Protocol: Then, cells were stimulated with Concanavalin A (Con A) at 50 μg/mL for 48 h to induce IL-2 release. The amount of IL-2 released to the culture medium was evaluated using Human IL-2 ELISA kit. Experiments were carried out four times.

SH-SY5Y cells [2] = assay: Cellular toxicity in SH-SY5Y cells (MTT, 24 h); format: cell-based; settings: 24 h; for cytotoxicity toward SH-SY5Y cells: 10-0.01 μM, in words
Text: (§1) The MTT (3-[4,5-dimethylthiazol-2-yl]-2,5-diphenyltetrazoliumbromide) assay was used to determine the cytotoxicity of gracilin derivatives in T lymphocytes (Burton, J. D. Methods Mol. Med., 2005, 110, 69-78) and SH-SY5Y cells and the protective effect of these compounds against H2O2 insult in neuroblastoma cells as previously described (Leiros, M., Alonso, E., Sanchez, J. A., Rateb, M. E., Ebel, R., Houssen, W. E., Jaspars, M., Alfonso, A. and Botana, L. M. ACS Chem. Neurosci., 2014, S, 71-80). Human T lymphocytes were cultured in 24 well plates at the concentration of 2.5×10^6 cells/mL and exposed to different compound concentrations (0.01, 0.1, 1 and 10 μM) added to the culture medium. Human T cells were maintained in the presence of the pure compound at 37° C. in humidified 5% CO2/95% air atmosphere for 48 h.
(§2) SH-SY5Y cells were seeded in 96-well plates at a density of 2.5×10^5 cells/mL and allowed to adhere for 24 h. At first, cells were treated only with compounds at concentrations ranging from 10-0.01 μM for 24 h to determine their possible cytotoxic effects. Experiments were carried out three times. For neuroprotective experiments, cells were treated with compounds at non-toxic concentrations (1 μM→1 nM) and 150 μM H2O2 for 6 h. Briefly, cells were washed three times with saline solution and 200 μL of MTT (500 μg/mL) dissolved in saline buffer were added to each well. Following 1 h of incubation at 37° C., the cells were disaggregated with sodium dodecyl sulphate at 5%.
Absorbance of formazan crystals was measured at 595 nm with a spectrophotometer plate reader. Saponin was used as death control and its absorbance was subtracted from the other data. All experiments were performed four times.

human T lymphocytes = assay: Viability of human T lymphocytes (MTT assay, 48 h); format: cell-based; settings: in words
Text: as §1
(§3) Saponin was used as cellular death control and its absorbance was subtracted from the other data. After the incubation period with compounds, assay was performed. First cells were centrifuged (1500 rpm, 5 min, 4° C.). The pellets were resuspended in saline solution with MTT (250 μg/mL) and then incubated at 37° C. during 30 min. After washing off excess MTT twice with saline solution, cells were disaggregated with H2O and sonicated for 1 min and the absorbance of the colored formazan salt was measured at 595 nm in a spectrophotometer plate reader. All experiments were performed three times.

[3] = Viability of human T lymphocytes (MTT assay, 48 h); format: cell-based; settings: human; 1 μM, 48 hours; read-out: decrease in cell viability
Text: as §1, §3

[4] = target: T1, active human CypA protein (Homo sapiens, UniProt P62937); assay: Binding to immobilized CypA by surface plasmon resonance (SPR); settings: SPR, immobilized CypA
T1 construct: Active human CypA full-length protein was from Abcam; purchased Abcam
Protocol: Sensor surface activation and ligand immobilization were performed by using HBS-EP as running buffer at a flow rate of 5 μL/min and 25° C. CM5 sensor chips were used as surface where Cyp A or D was immobilized as ligand. The CM5 chip is a glass slide coated with a thin layer of gold with a matrix of carboxymethylated dextran covalently attached. The CM5 chip was activated using an amine coupling kit. […] After activation, the ligand, 100 μg/mL of active human CypA protein dissolved in sodium acetate 10 mM at pH 4.5 was added to be immobilized over a CM5 sensor chip. Finally ethanolamine-HCl was injected to deactivate the remaining active esters and to avoid non-specific binding. […] Once analytes were tested and interaction was observed, individual binding curves were analyzed by determining the kinetic constants of analytes-CypA binding, namely, the observed rate constant (Kobs), the association rate constant (Kass), the dissociation rate constant (Kdiss), and the kinetic equilibrium dissociation constant (KD). At equilibrium, by definition, […]. The pseudo-first order association rate constants Kobs (s^-1) were determined for each compound concentration by using the 1:1 Langmuir association model of BiaEvaluation software (BiaCore, Uppsala, Sweden). Then a representation of Kobs against the corresponding concentration of each compound was done. […] From the equation of these representations, Kass, M^-1 s^-1, gradient of the plot, and […]^-1, intercept of the plot was obtained. Within these two values, the kinetic equilibrium dissociation constant KD for each analyte-CypA binding was obtained. The duration of the sample injection was 2 min at 10 μL/min flow rate. Next, dissociation of bound molecules in HBS-EP buffer flow was studied. The bound drugs were removed from the chip surface before the next injection by adding 1 M Glycine-HCl at pH 2.5 for 1 min. The association phase was used to quantify the compound-CypA or D interactions. All experiments were performed four times.

CypA = target: T2, CypA (Homo sapiens, UniProt P62937); assay: CypA PPIase activity inhibition; format: biochemical; settings: up to 10 μM, in words
T2 construct: Active human CypA full-length protein was from Abcam; purchased Abcam

SHSY5Y cells = assay: Neuroprotective effects summarised over all five assays (viability, TMRM, ROS, GSH, mPTP); format: cell-based, human; settings: 0.001, 0.01 or 0.1 μM; H2O2 challenge
Protocol: As described previously, neuroprotective agents can mediate their effects through inhibition of CypD, an isoform of CypA. […] All assays were performed at the indicated concentrations (0.001, 0.01, or 0.1 μM) based on initial cytotoxicity determined with SHSY5Y cells (Table 1).

SH-SY5Y cells [5] = assay: Intracellular ROS levels (carboxy-H2DCFDA) after H2O2; format: cell-based, human; settings: 150 μM H2O2 co-treatment 6 h
Protocol: Intracellular levels of reactive oxygen species (ROS) were determined with carboxy-H2DCFDA (5-(and-6)-carboxy-2′,7′-dichlorodihydrofluorescein diacetate). This dye diffuses through the cellular membrane and is converted by cellular esterases to carboxy-H2DCFH (non-fluorescent). When carboxy-H2DCFH is oxidized by ROS, it becomes fluorescent (Halliwell, B. and Whiteman, M. Br. J. Pharmacol., 2004, 142, 231-255). Cells were seeded at a density of 2.5×10^5 cells/mL in 96-well plates and allowed to attach for 24 h. Following treatment with compounds at various concentrations (1 μM→1 nM) and 150 μM H2O2 for 6 h, SH-SY5Y cells were washed twice with serum-free culture medium. Then, carboxy-H2DCFDA 20 μM dissolved in serum-free culture medium was added to each well and the cells were incubated for 1 h at 37° C. After this incubation, the medium with the fluorescent dye was replaced with PBS and the plate was incubated for 30 min at 37° C. Fluorescence was read at 527 nm, with an excitation wavelength of 495 nm. All experiments were performed four times.

CypD = CypD (Homo sapiens, UniProt P30405); assay: CypD enzyme inhibition assay (PPIase activity); format: biochemical; settings: CypD 1 nM
Protocol: The inhibition of the peptidyl-prolyl cis-trans isomerase (PPIase) activity of compounds was determined by following the rate of hydrolysis of N-succinyl-Ala-Ala-Pro-Phe-pnitroanilide by chymotrypsin. CsA was used as positive control. The assay was performed as previously described (Yan, W., Qing, J., Mei, H., Nong, J., Huang, J., Zhu, J., Jiang, H., Liu, L., Zhang, L. and Li, J. Bioorg. Med. Chem. Lett., 2015, 25, 5682-5686) with small modifications. The assay buffer (20 mM Tris-HCl, 50 mM NaCl, pH 7.8), CypD (1 nM) and the compounds at concentrations ranging from 0.001 to 10 μM were pre-cooled at 4° C. for 1 h. After that time, chymotrypsin at 0.4 mg/mL in 1 mM HCl was added to each well. The reaction was initiated by the addition of the peptide (0.1 mg/mL in 500 mM LiCl in THF). The absorbance at 380 nm was monitored every 30 sec for 5 min with a spectrophotometer plate reader. The blank rates of hydrolysis (in absence of CypD) were subtracted from the rates in the presence of the enzyme. The half-maximal inhibitory concentration (IC50) was calculated by fitting the data with a log(inhibitor) vs. response model of GraphPad Prism 5.0 software. All experiments were performed four times.

[6] = tested on: mitochondrial membrane permeability transition pore (mPTP) in SH-SY5Y cells; assay: Mitochondrial membrane permeability transition pore (mPTP) measurement, TBHP-induced opening; format: cell-based, human; settings: 1 mM TBHP
Protocol: The blockage of mPTP by compounds was determined with the MitoProbe Transition Assay Kit following manufacturer's instructions. Briefly, SH-SY5Y human neuroblastoma cells were re-suspended in pre-warmed PBS/Ca^+2 buffer at a final concentration of 1×10^6 cells/mL. Cells were loaded with 0.01 μM Calcein-AM and incubated at 37° C. for 15 min. Then, 0.4 mM CoCl2 and compounds at selected concentrations were added and incubated for 15 min at 37° C. […] After this incubation, cells were centrifuged and re-suspended in 100 μL of PBS. Just before analyzing, 1 mM tert-butyl hydroperoxide (TBHP) was added to the samples to induce pore opening. Fluorescence intensity was measured at 488 nm excitation and 517 nm emission wavelengths by flow cytometry using the ImageStreamMKII (Amnis Corporation, Merck-Millipore) and […] software. The fluorescence of 10,000 events was analyzed with IDEASR Application vs 6.0 (Amnis Corporation, Merck-Millipore). Experiments were carried out four times.

SH-SY5Y cells [7] = assay: Neuroprotection against H2O2 toxicity, cell viability by MTT; format: cell-based, human; settings: 150 μM H2O2 co-treatment 6 h; 0.01, 0.1 and 1 μM
Protocol: as §2, with “5%. Absorbance of formazan crystals was measured at 595 nm with a spectrophotometer plate reader. Saponin was used as death control and its absorbance was subtracted from the other data. All experiments were performed four times.” for “5%.”

SH-SY5Y cells [8] = assay: Glutathione assay (Thiol Tracker Violet) after H2O2; format: cell-based, human; settings: 150 μM H2O2 co-treatment 6 h, two or more concentrations
Protocol: Glutathione (GSH) levels were determined using Thiol Tracker Violet dye, which reacts with reduced thiols in cells. Reduced glutathione represents the majority of intracellular free thiols, so this probe can be used to estimate its levels in cells. Measurements were performed following manufacturer's protocol. Cells were seeded in 96-well plates at 2.5×10^5 cells/mL for 24 h and treated with compounds at various concentrations (1 μM→1 nM) and 150 μM H2O2. After 6 h, SH-SY5Y cells were washed twice with PBS and loaded with 100 μL of prewarmed Thiol Tracker Violet dye (10 μM) for 30 min at 37° C. The fluorescence was measured at 404 nm excitation and emission at 526 nm. All experiments were performed four times.

EGF-R = EGF-R (Homo sapiens, UniProt P00533); settings: 100 μM; cited from earlier work
Chain of EGF-R (P00533 25-1210, species assumed): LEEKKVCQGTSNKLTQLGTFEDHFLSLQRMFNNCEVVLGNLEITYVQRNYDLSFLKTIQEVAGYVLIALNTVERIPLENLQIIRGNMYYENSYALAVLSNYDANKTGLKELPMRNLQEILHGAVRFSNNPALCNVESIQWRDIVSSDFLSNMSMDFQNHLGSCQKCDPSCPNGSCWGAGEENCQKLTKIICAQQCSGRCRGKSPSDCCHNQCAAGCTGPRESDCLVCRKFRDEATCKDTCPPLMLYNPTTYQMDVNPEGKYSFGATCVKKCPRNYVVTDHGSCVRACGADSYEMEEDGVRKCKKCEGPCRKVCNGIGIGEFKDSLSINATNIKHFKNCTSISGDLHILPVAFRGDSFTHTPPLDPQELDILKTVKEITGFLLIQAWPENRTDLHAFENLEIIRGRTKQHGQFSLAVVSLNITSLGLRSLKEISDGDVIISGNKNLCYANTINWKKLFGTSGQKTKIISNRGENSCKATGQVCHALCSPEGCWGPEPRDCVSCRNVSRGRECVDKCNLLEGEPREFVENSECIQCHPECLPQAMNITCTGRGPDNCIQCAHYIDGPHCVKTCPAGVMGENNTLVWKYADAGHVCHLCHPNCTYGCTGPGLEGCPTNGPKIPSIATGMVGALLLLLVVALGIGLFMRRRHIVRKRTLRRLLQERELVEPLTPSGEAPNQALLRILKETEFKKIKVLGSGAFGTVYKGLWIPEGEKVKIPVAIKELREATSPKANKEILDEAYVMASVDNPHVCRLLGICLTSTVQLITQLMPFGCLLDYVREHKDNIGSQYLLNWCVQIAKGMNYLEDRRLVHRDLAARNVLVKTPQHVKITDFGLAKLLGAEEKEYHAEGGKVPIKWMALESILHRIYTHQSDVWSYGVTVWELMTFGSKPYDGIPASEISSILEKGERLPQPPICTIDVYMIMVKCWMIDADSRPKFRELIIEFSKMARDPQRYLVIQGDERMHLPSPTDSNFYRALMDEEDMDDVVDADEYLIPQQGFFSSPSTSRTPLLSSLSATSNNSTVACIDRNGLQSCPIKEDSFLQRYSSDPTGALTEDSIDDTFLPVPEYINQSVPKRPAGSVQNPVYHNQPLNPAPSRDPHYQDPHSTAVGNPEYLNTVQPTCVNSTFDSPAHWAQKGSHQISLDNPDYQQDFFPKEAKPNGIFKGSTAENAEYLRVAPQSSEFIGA

T1 sequence (P62937 whole entry): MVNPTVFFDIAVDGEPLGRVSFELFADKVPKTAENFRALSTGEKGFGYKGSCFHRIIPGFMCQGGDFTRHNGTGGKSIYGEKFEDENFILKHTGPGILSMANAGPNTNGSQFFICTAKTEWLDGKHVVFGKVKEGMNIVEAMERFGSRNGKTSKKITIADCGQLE
Chain of CypD (P30405 30-207): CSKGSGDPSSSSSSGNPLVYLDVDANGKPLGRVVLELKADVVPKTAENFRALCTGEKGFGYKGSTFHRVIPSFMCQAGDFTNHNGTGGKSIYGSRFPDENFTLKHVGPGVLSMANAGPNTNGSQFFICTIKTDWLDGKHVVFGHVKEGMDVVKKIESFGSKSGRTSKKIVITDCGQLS
T2 sequence (P62937 whole entry): as the sequence (P62937 whole entry) above

SMILES | Inhibition of IL-2 production [1] | cytotoxicity toward SH-SY5Y cells (SH-SY5Y cells [2]) | IC50 (SH-SY5Y cells [2]; Homo sapiens, SH-SY5Y, read-out: IC50 (cellular toxicity)) | impact on T-cell viability (human T lymphocytes) | cytotoxicity at 48 h, 1 μM [3] | Kd [4] | CypA PPIase inhibitory activity (CypA) | neuroprotective / antioxidant effects based on all five assays (SHSY5Y cells) | ROS levels (SH-SY5Y cells [5]) | IC50 (CypD) | mPTP opening [6] | protection of cell viability against H2O2 insult (SH-SY5Y cells [7]) | GSH levels (SH-SY5Y cells [8]) | EGF-R inhibition (EGF-R)
CC(=O)O[C@H]1OC[C@@H]2C=C([C@]3(C)CCCC(C)(C)C3)CC[C@H]12 [Compound 29b, (1R,3aR,7aS)-5-(1,3,3-trimethylcyclohexyl)-1,3,3a,6,7,7a-hexahydroisobenzofuran-1-yl acetate] | ~0% | led to cell death at the higher concentrations tested | 7900 nM | relatively non-toxic | 15 to 25% | ~3000 nM and 2800 to 6800 nM |  |  |  |  |  |  |  | 
CC(=O)OC[C@@H]1CCC(C2(C)CCCCC2)=C[C@@H]1COC(C)=O [Compound 27b, ((3S,4R)-1′-methyl-[1,1′-bi(cyclohexan)]-1-ene-3,4-diyl)bis(methylene) diacetate] |  | led to cell death at the higher concentrations tested |  |  |  |  | inactive | displayed significant neuroprotective effects; also recorded: significant antioxidant activity in all five assays | diminishing ROS at two or three concentrations | 480 nM and < 500 nM | prevent TBHP-induced opening | protected cells against H2O2 insult at almost all concentrations | recovered GSH levels | 
C/C=C1\C([C@@]2(C)CCCC(C)(C)C2)=CC[C@H]2[C@H](OC(C)=O)O[C@H](OC(C)=O)[C@@H]12 [gracilin A, reference compound] |  |  |  |  |  | 2530 ± 400 nM |  |  |  |  |  |  |  | 70%
